Experimental data from patent US5721103A, “Trienoic retinoid compounds and methods” (Ligand Pharmaceuticals Incorporated, priority 1995, dated 1998).
pEC50: −log10 of the molar value. One block for each compound: values may come before it.

Columns and labels:
Assay type in all cases: cell-based
[1] = tested on: RARs and RXRs; test: Co-transfection assay, RAR and RXR receptors taken together; conditions: for activity on the RARs or RXRs (in words): any of the RARs or RXRs; for RAR activity (in words): RARs
Protocol: Utilizing the "cis-trans" or "co-transfection" assay described by Evans et al., Science, 240:889-95 (May 13, 1988), the disclosure of which is herein incorporated by reference, the retinoid compounds of the present invention were tested and found to have strong, specific activity as either selective RAR agonists, selective RXR agonists, or as pan-agonist activators of both RAR and RXR receptors. This assay is described in further detail in U.S. Pat. Nos. 4,981,784 and 5,071,773, the disclosures of which are incorporated herein by reference.
In the co-transfection assay, a cloned cDNA for an IR (e.g., human RARα, RARβ, RXRγ) under the control of a constitutive promoter (e.g., the SV 40 promoter) is introduced by transfection (a procedure to induce cells to take up foreign genes) into a background cell substantially devoid of endogenous IRs. This introduced gene directs the recipient cells to make the IR protein of interest. A second gene is also introduced (co-transfected) into the same cells in conjunction with the IR gene. This second gene, comprising the cDNA for a reporter protein, such as firefly luciferase (LUC), is controlled by an appropriate hormone responsive promoter containing a hormone response element (HRE). This reporter plasmid functions as a reporter for the transcription-modulating activity of the target IR. Thus, the reporter acts as a surrogate for the products (mRNA then protein) normally expressed by a gene under control of the target receptor and its native hormone.
The co-transfection assay can detect small molecule agonists or antagonists of target IRs. Exposing the transfected cells to an agonist ligand compound increases reporter activity in the transfected cells. This activity can be conveniently measured, e.g., by increasing luciferase production, which reflects compound-dependent, IR-mediated increases in reporter transcription. […] . Increasing concentrations of a suspected antagonist will decrease the reporter signal (e.g., luciferase production). The co-transfection assay is therefore useful to detect both agonists and antagonists of specific IRs. Furthermore, it determines not only whether a compound interacts with a particular IR, but whether this interaction mimics (agonizes) or blocks (antagonizes) the effects of the native regulatory molecules on target gene expression, as well as the specificity and strength of this interaction.
To determine RAR and/or RXR agonist activity of the compounds of the present invention, the CV-1 cells were transiently transfected by calcium phosphate coprecipitation according to the procedure of Berger et al., 41 J. Steroid Biochem. Mol. Biol., 733 (1992) with the following receptor expressing plasmids: pRShRARα: Giguere et at., 330 Nature, 624 (1987); pRShRARβ and pRShRARγ, Ishikawa et al., 4 Mol. Endocrin., 837 (1990); pRShRXRα, Mangelsdorf et at., 345 Nature, 224 (1990); and pRSmRXRβ and pRSmRXRγ, Mangelsdorf et al., 6 Genes & Devel., 329 (1992), the disclosures of which are herein incorporated by reference. Each of these receptor expressing plasmids was co-transfected at a concentration of 5 ng/well, along with a basal reporter plasmid at 100 ng/well, the internal control plasmid pRS-β-Gal at 50 ng/well and filler DNA, pGEM at 45 ng/well.

[2] = target: T1, RARβ (Homo sapiens, UniProt P10826); test: Co-transfection assay, RARβ agonist activity; conditions: CV-1 cells, 40 hours, read-out: Potency (EC50) RARβ
T1 construct: expressed in transfected cells; host or cells: CV-1 (African green monkey kidney)
T1 sequence (P10826 1-448 isoform P10826-2): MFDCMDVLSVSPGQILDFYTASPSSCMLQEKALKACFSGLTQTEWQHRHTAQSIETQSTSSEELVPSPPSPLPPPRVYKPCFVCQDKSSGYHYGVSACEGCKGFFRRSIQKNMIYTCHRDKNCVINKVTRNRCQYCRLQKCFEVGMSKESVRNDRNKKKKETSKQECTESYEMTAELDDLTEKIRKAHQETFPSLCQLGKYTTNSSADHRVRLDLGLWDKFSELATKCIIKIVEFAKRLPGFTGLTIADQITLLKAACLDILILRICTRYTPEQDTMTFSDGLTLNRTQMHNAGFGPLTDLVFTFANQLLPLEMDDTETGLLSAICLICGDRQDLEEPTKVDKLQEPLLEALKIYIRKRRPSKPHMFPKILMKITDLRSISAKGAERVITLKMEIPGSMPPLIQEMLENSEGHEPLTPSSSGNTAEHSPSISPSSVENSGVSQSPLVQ

[3] = target: T2, RXRβ (Mus musculus, UniProt P28704); test: Co-transfection assay, RXRβ agonist activity; conditions: CV-1 cells, 40 hours, read-out: Potency (EC50) RXRβ
T2 construct: expressed in transfected cells; host or cells: CV-1 (African green monkey kidney)
T2 sequence (P28704 1-520): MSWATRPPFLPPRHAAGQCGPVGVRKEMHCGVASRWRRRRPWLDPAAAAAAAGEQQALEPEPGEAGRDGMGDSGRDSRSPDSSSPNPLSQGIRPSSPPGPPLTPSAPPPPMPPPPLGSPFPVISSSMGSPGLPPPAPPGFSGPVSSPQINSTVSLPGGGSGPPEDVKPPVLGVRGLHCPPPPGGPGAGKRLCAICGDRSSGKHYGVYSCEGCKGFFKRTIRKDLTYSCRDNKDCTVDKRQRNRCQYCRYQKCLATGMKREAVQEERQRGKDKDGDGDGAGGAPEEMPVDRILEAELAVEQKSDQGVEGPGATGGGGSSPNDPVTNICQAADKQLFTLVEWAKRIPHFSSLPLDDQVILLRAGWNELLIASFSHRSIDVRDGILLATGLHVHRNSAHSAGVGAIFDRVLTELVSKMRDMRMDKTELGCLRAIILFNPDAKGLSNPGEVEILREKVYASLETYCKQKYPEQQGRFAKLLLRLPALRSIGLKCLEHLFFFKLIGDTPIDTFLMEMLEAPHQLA

[4] = target: T3, RXRα (Homo sapiens, UniProt P19793); test: Co-transfection assay, RXRα agonist activity; conditions: CV-1 cells, 40 hours, read-out: Potency (EC50) RXRα
T3 construct: expressed in transfected cells; host or cells: CV-1 (African green monkey kidney)
T3 sequence (P19793 1-462): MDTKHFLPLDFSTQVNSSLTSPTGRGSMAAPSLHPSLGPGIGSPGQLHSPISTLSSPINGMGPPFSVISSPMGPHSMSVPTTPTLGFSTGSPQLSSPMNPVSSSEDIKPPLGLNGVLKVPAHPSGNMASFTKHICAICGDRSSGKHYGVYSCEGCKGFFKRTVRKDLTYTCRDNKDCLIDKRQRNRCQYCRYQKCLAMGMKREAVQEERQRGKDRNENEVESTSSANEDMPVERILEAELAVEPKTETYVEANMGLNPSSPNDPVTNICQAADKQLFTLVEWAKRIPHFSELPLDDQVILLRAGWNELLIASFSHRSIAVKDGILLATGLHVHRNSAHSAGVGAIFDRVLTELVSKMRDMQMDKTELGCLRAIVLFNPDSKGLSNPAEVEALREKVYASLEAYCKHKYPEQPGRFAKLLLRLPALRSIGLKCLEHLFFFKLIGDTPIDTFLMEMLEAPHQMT

[5] = target: T4, RARγ (Homo sapiens, UniProt P13631); test: Co-transfection assay, RARγ agonist activity; conditions: CV-1 cells, 40 hours, read-out: Potency (EC50) RARγ
T4 construct: expressed in transfected cells; host or cells: CV-1 (African green monkey kidney)
T4 sequence (P13631 1-454): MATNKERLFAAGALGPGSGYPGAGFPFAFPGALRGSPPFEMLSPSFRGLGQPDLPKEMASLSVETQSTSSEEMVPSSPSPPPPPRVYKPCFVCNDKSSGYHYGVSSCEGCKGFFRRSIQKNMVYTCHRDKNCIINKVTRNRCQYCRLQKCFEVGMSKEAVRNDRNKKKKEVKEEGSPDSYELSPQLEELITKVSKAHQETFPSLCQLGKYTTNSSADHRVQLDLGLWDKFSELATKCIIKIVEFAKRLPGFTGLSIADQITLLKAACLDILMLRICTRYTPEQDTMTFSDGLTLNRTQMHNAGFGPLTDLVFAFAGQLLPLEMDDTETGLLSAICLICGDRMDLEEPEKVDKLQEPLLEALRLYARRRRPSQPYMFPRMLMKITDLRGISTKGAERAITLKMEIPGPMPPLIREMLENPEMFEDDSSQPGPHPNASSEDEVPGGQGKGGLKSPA

[6] = target: T5, RARα (Homo sapiens, UniProt P10276); test: Co-transfection assay, RARα agonist activity; conditions: CV-1 cells, 40 hours, read-out: Potency (EC50) RARα
T5 construct: expressed in transfected cells; host or cells: CV-1 (African green monkey kidney)
T5 sequence (P10276 1-462): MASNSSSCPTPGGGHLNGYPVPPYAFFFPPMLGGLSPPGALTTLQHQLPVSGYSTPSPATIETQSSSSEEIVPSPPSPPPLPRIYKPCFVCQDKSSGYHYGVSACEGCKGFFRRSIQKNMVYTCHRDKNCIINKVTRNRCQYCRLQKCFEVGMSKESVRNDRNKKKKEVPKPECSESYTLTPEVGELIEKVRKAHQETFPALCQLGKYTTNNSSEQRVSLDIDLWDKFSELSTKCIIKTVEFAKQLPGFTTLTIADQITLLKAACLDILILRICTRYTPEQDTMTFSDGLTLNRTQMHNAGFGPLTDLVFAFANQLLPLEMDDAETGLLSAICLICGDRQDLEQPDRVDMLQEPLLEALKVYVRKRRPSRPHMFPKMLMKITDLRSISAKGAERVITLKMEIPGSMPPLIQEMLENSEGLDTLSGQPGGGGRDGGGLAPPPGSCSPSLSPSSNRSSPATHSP

[7] = target: T6, RXRγ (Mus musculus, UniProt P28705); test: Co-transfection assay, RXRγ agonist activity; conditions: CV-1 cells, 40 hours, read-out: Potency (EC50) RXRγ
T6 construct: expressed in transfected cells; host or cells: CV-1 (African green monkey kidney)
T6 sequence (P28705 1-463): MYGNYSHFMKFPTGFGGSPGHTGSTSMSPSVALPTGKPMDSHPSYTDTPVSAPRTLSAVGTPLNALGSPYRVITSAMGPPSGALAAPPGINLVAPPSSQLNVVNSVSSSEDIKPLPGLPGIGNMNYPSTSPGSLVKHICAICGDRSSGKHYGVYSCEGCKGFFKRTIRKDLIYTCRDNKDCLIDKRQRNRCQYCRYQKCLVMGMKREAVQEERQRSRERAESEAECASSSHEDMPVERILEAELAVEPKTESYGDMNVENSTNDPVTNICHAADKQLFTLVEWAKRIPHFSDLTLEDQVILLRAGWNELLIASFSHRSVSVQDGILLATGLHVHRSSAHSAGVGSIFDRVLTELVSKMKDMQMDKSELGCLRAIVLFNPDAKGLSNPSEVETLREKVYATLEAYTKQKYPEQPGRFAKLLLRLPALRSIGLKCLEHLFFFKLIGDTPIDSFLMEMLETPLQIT

Compound: COc1ccc(/C(C)=C/C=C/C(C)=C/C(=O)O)cc1 [B, (2E,4E,6E)-3-methyl-7-(4-methoxyphenyl)octa-2,4,6-trienoic acid, reference compound]
activity on the RARs or RXRs (in words) [1]: no, or virtually no, activity

Compound: COc1cc(C)c(/C=C/C=C/C=C(\C)C(=O)O)c(C)c1C [C, (2E,4E,6E)-2-methyl-7-(2,3,6-trimethyl-4-methoxyphenyl)hepta-2,4,6-trienoic acid, reference compound]
activity on the RARs or RXRs (in words) [1]: no, or virtually no, activity

Compound: CCC/C(=C/C=C/C(C)=C/C(=O)O)c1cc(C(C)(C)C)cc(C(C)(C)C)c1 [Compound 28, (2E, 4E, 6Z)-7-(3,5-Di-t-butylphenyl)-3-methyldeca-2,4,6-trienoic acid]
RXR activity (in words) ([1]; RXRs): very potent and selective RXR active compound

Compound: CC(/C=C/C=C1\CCOc2c1cc(C(C)(C)C)cc2C(C)(C)C)=C\C(=O)O [Compound 39, (2E,4E,6E)-6-(6,8,-Di-t-butylchroman-4-ylidene)-3-methylhexa-2,4,6-trienoicacid]
RAR activity (in words) [1]: extremely potent RAR active compounds

Compound: COc1c(C(C)(C)C)cc(/C(C)=C/C=C/C(C)=C/C(=O)O)cc1C(C)(C)C [Compound 47, (2E, 4E, 6E) -3-Methyl-7-(3,5-di-t-butyl-4-methoxyphenyl)octa-2,4,6-trienoic acid]
RAR activity (in words) [1]: extremely potent RAR active compounds
selectivity among RARs (in words) ([1]; RARβ and RARγ): selectivity on RARβ and RARγ

Compound: COC(/C=C/C=C(\C)c1ccc(C(C)(C)C)cc1)=C/C(=O)O [D, (2E,4E,6E)-3-methoxy-7-(4-t-butylphenyl)octa-2,4,6-trienoic acid, reference compound]
activity on the RARs or RXRs (in words) [1]: no, or virtually no, activity

Other lines, results leading:

activity on the RARs or RXRs (in words) [1]: no, or virtually no, activity
Compound: COc1ccc(/C(C)=C/C=C/C(C)=C/C(=O)O)cc1OC [A, (2E,4E,6E)-3-methyl-7-(3,4-dimethoxyphenyl)octa-2,4,6-trienoic acid, reference compound]

RAR activity (in words) [1]: extremely potent RAR active compounds
Compound: CC(/C=C/C=C(\C)c1cc(C(F)(F)F)cc(C(F)(F)F)c1)=C\C(=O)O [Compound 41, (2E, 4E, 6E)-7-(3,5-Di-trifluoromethylphenyl)-3-methylocta-2,4,6-trienoic acid]

potency profile in comparison to 9-cis retinoic acid (in words) ([1]; versus 9-cis, pan-agonist): superior potency profile
Compound: C/C(=C/C=C/C(C)=C/C(=O)O)c1cc(C(C)C)cc(C(C)C)c1 [Compound 43, (2E, 4E, 6Z)-7-(3,5-Di-isopropylphenyl)-3-methylocta-2,4,6-trienoic acid]

pEC50 [2]: 7.43
pEC50 [3]: 7.68
pEC50 [4]: 5.84
pEC50 [5]: 7.48
pEC50 [6]: 6.65
pEC50 [7]: 6.65
Compound: CC(/C=C/C=C(\C)c1ccc(C(C)(C)C)cc1)=C\C(=O)O [Compound 44, (2E, 4E, 6E)-7-(4-T-butyl-phenyl)-3-methylocta-2,4,6-trienoic acid]
